Here are results for two compounds from publication PMC11784145, “Efficacy and in vitro pharmacological assessment of novel N-hydroxypyridinediones as hepatitis B virus ribonuclease H inhibitors” (Antimicrobial Agents and Chemotherapy, 2024).

The test system of data set [1] is HBV replication (HBV plus-polarity DNA strand). As to the kind of experiment: HBV replication inhibition, strand preferential qPCR in hepDES19 cells. It counts as cell-based, hepatitis B virus. The conditions noted are these: for EC50: 72 h exposure. As for the experimental part: HBV replication inhibition was measured in hepDES19 cells following 72 h compound exposure without compound replenishment. EC50 values were determined by HBV plus-polarity strand suppression using a strand preferential qPCR assay, as described previously ([28]). Three or more replicate values were obtained on different days.
(In general: Quantitative PCR measures a nucleic acid by following its amplification.)

For the next data set, the target named is T1, CYP2D6 (Homo sapiens, UniProt P10635).
T1 construct: purchased Thermo Fisher Vivid 2D6 EOMCC Blue
As to the kind of experiment: Cytochrome P450 inhibition, Vivid 2D6 EOMCC Blue kit. Type of data set: in vitro ADME. The settings on record: for IC50: dose-response 50 µM to 3 nM, mean ± SD. As for the experimental part:
Compound inhibition of Cytochrome P (CYP) 3A4, 2C9, and 2D6 was determined using Vivid CYP450 screening kits (Thermo Fisher) according to the manufacturer’s instructions, as described previously ([27]). The kits employed were: Vivid 3A4 DBOMF Green, 2C9 BOMF Green, and 2D6 EOMCC Blue. Reactions were initiated by addition of the fluorophore-conjugated substrates with Vivid NADP^+ and were conducted at 37°C using either a Biotek Synergy HTX multi-mode plate reader with 485/20 nm excitation and 520/20 nm emission filters (green-fluorescent substrate), or a Tecan Spark plate reader with monochromator settings at 415/20 nm excitation and 460/20 nm emission (blue-fluorescent substrate) defined by the Center Wavelength/band-pass values. Substrate cleavage was detected every 60 s.
Compounds were initially screened against each enzyme at 10 µM and maximum rates of fluorescence in RFU were calculated using the Biotek Gen5 v3.11 software. Percent inhibition of experimental compound reactions was normalized to the rate to DMSO vehicle reactions. Positive controls used were: CYP3A4—ketoconazole (Sigma Aldrich), CYP2C9—sulfaphenazole (Cayman Chemical), and CYP2D6—quinidine (Fisher Scientific). Dose-response curves were generated for compounds that inhibited an enzyme by ≥50% using titrated concentrations of compound (50 µM to 3 nM) or 1% DMSO. IC50 values were determined using the four-parameter log[inhibitor] versus response algorithm in GraphPad Prism. Qualitative screens and dose-response curves were each performed in triplicate on different days.

Data set [2] has as its system HBV plus-polarity DNA in hepDES19 cells. The data set is described as follows: Effect of plasma proteins on compound potency. It counts as cell-based, hepatitis B virus. The settings on record: 10 µM compound, 72 h, media with BSA to 40 mg/mL versus 10% FBS (0.25 mg/mL BSA). As for the experimental part:
HBV plus-polarity DNA suppression was assessed in hepDES19 cells following compound treatment for 72 h. Cells incubated with compound (10 µM) in either normal tissue culture media conditions containing 10% FBS, or in media supplemented with bovine serum albumin (BSA) to 40 mg/mL. Percent inhibition was determined, as described previously ([27], [28]). The presence of increased BSA levels was determined to affect compound potency if there was a statistically significant decrease in percent HBV plus polarity DNA suppression when compared to cells treated with compound in normal media conditions. Three or more replicate assays were performed on separate days.

For a further data set, the system named is HepDES19 cells. The settings on record: read-out: HepDES19 CC50; 72 h, MTS; highest concentration tested 100 µM; mean ± SD.
Data set [3] deals with primary human hepatocytes (PHHs). As to the kind of experiment: Primary human hepatocyte cytotoxicity (MTS assay). Type of data set: cell-based. The settings on record: 72 h, highest concentration tested 100 µM, mean ± SD, read-out: PHH CC50. The procedure: PHH cytotoxicity was determined by MTS assays following 72 h compound exposure, as described in Woodson et al. ([27]).
(In general: Formazan colour is commonly taken as a measure of viable cells.)

A further data set concerns CYP3A4 mRNA expression. The data set is described as follows: CYP3A4 induction, RT-qPCR in HepG2 cells. The settings on record: 10 µM, 24 or 48 h, normalized to GAPDH and DMSO.
[4] abbreviates: HBV plus-polarity strand suppression, highest concentration tested 100 µM, mean ± SD, read-out: HepDES19 EC50.
[5] abbreviates: read-out: EC50 against HBV replication.

Where “and” joins values, the source holds several entries; their conditions need not be identical. Equal values may be shown once. Read-outs that look alike come from different tables or passages of the source.

What is called EC50 is the concentration giving half of the maximal effect. As a reminder, the IC50 is the point on the concentration scale where inhibition reaches its midpoint. In general, CC50 refers to the concentration that lowers cell viability or growth by half.

T1 sequence (P10635 whole entry): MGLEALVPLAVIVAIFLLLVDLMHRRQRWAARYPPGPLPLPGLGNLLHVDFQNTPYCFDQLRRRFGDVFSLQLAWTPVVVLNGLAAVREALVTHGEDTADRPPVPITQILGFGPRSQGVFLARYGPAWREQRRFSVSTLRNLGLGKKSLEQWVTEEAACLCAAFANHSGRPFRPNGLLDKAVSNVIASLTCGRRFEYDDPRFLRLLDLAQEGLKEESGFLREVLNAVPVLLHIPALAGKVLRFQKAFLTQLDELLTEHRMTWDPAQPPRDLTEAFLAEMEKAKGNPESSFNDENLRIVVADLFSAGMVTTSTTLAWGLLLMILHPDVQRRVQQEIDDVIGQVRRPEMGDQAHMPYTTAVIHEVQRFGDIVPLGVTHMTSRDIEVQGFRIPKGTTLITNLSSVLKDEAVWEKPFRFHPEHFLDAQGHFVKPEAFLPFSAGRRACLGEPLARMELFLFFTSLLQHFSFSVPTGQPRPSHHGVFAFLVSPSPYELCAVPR
Method for CYP3A4 mRNA expression: HepG2 cells were seeded on 12-well, tissue-culture-treated plates (Sarstedt) at 2.5 × 10^5 cells/well for 24 h. Cells were treated with 10 µM compound or 1% DMSO for 48 h with replenishment at 24 h. Cells were rinsed with PBS and lysed at 0, 24, and 48 h using TRI Reagent (Sigma Aldrich). […] Cellular DNA was degraded using DNase I (Invitrogen), according to the manufacturer’s instructions.
Complementary DNA (cDNA) synthesis employed the ProtoScript II First Strand cDNA Synthesis Kit (New England Biolabs) according to the manufacturer’s instructions with an additional incubation step at 25°C for 5 min. Reverse transcriptase-qPCR (RT-qPCR) was performed using a Quantstudio 5 (Thermo Fisher) in a final reaction volume of 20 µL with 4 µL cDNA template, 2× KAPA probe force master mix (Roche), 300 nM probe, and 100 nM forward and reverse primer. CYP3A4 expression was determined by normalizing the experimental sample cycle threshold values to DMSO-treated wells. GAPDH was used as a housekeeping gene.

Turning to `CC(=NOCc1ccc(F)c(F)c1)c1c(C)cc(=O)n(O)c1O` [Compound 1617], the “HepDES19 SI (CC50/EC50)” value in data set [1] is given as 157. Also, the EC50 in data set [1] (setting [4]) is 350 ± 193 nM; in data set [1] (setting [5]) it was < 400 nM. In addition, the IC50 on CYP2D6 is 4.46 µM. For the same compound, in data set [2], the “Effect of increased albumin on HBV plus polarity DNA suppression” value is “physiologically relevant”. Further, the CC50 with HepDES19 cells was 72.9 ± 37.1 µM.
`CC(=NOCc1cccc(F)c1)c1c(C)cc(=O)n(O)c1O` [Compound 1618]: the “HepDES19 SI (CC50/EC50)” value in data set [1] was 1,071. Moreover, the results for the EC50 in data set [1] (setting [4]) and in data set [1] (setting [5]) were 61 ± 10 nM and < 400 nM, respectively. For the same compound, the 50% cytotoxic concentration (CC50) was 93.8 ± 10.7 µM in data set [3] and 73.9 ± 28.6 µM with HepDES19 cells. For the same compound, the “Selectivity index for CYP (CYP2D6) inhibition versus HBV EC50” value at CYP2D6 is > 150 and 166. On CYP2D6, the IC50 was determined as 10.2 ± 4.1 µM. The “CYP3A4 mRNA expression increase” value in the data set with CYP3A4 mRNA expression was < 2 fold.
